Assay results published in patent US9765092B2, “Tricyclic piperidine compounds” (ACTELION PHARMACEUTICALS LTD, priority 2013, dated 2017).

Biological target: human TPH1 (Homo sapiens (Human), UniProt P17752)
Assay: Biochemical in vitro assay using fluorescence readout (TPH1 inhibition)
Settings: full length human TPH1, 40 μM L-tryptophan, 15° C., 60 minutes, fluorescence at 540 nm; mean if determined several times

Chain of human TPH1 (P17752 whole entry): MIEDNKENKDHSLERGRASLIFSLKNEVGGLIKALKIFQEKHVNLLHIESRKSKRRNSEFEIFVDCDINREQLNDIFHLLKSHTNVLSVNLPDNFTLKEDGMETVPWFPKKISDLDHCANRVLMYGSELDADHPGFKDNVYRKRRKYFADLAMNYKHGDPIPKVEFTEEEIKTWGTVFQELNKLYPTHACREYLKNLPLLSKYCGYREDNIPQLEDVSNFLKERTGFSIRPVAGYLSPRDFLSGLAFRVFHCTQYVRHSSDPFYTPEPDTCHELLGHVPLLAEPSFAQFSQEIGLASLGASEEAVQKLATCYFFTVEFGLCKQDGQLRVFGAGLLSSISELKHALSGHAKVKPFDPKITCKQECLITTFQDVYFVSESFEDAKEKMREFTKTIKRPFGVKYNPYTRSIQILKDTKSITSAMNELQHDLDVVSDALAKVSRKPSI

Going from Cc1nn2c3c(nc2s1)CCN(C(=O)COc1ccc(N2CCOCC2)nc1Cl)C3c1csc(CO)c1 (centres unmarked) [Example 1.45.1, 2-((2-Chloro-6-morpholinopyridin-3-yl)oxy)-1-(5-(5-(hydroxymethyl)-thiophen-3-yl)-2-methyl-7,8-dihydro-[1,3,4]thiadiazolo[2′,3′:2,3]imidazo[4,5-c]pyridin-6(5H)-yl)ethanone] to Cc1nn2c3c(nc2s1)CCN(C(=O)COc1ccc(N(C)CCO)nc1Cl)C3c1ccc(Cl)cc1F (centres unmarked) [Example 1.4.13, 1-(5-(4-Chloro-2-fluorophenyl)-2-methyl-7,8-dihydro-[1,3,4]thiadiazolo[2′,3′:2,3]imidazo[4,5-c]pyridin-6(5H)-yl)-2-((2-chloro-6-((2-hydroxyethyl)-(methyl)amino)pyridin-3-yl)oxy)ethanone], the IC50 falls from 33 nM to 5 nM (6.6-fold). The second is the more potent here.

Cc1nn2c3c(nc2s1)CCN(C(=O)COc1cc(F)cnc1Cl)C3c1cnc(N(C)C)s1 (centres unmarked) [Example 1.22.4, 2-((2-Chloro-5-fluoropyridin-3-yl)oxy)-1-(5-(2-(dimethylamino)thiazol-5-yl)-2-methyl-7,8-dihydro-[1,3,4]thiadiazolo[2′,3′:2,3]imidazo[4,5-c]pyridin-6(5H)-yl)ethanone] showed an IC50 of 79 nM.

Same assay, conditions: human TPH1, fluorescence readout

First: Cc1nn2c3c(nc2s1)CCN(C(=O)COc1ccc(C#N)nc1Cl)C3c1ccc(Cl)nc1F (centres unmarked) [Example 1.16.5, 6-chloro-5-(2-(5-(6-chloro-2-fluoropyridin-3-yl)-2-methyl-7,8-dihydro-[1,3,4]thiadiazolo[2′,3′:2,3]imidazo[4,5-c]pyridin-6(5H)-yl)-2-oxoethoxy)picolinonitrile]
Second: Cc1nn2c3c(nc2s1)CCN(C(=O)COc1ccc(C(F)(F)F)cc1Cl)C3c1ccc(Cl)nc1F (centres unmarked) [Example 1.16.7, 1-(5-(6-chloro-2-fluoropyridin-3-yl)-2-methyl-7,8-dihydro-[1,3,4]thiadiazolo[2′,3′:2,3]imidazo[4,5-c]pyridin-6(5H)-yl)-2-(2-chloro-4-(trifluoromethyl)phenoxy)ethanone]
The IC50 of the first is 7-fold higher: 35 nM for the first, 5 nM for the second. The second is the more potent here.

First: CCOC(=O)c1ncc(C2c3c(nc4sc(C)nn34)CCN2C(=O)COc2ccc(C#N)cc2Cl)s1 (centres unmarked) [Example 1.30.3, Ethyl 5-(6-(2-(2-chloro-4-cyanophenoxy)acetyl)-2-methyl-5,6,7,8-tetrahydro-[1,3,4]thiadiazolo[2′,3′:2,3]imidazo[4,5-c]pyridin-5-yl)thiazole-2-carboxylate]
Second: Cc1nn2c3c(nc2s1)CCN(C(=O)COc1ccc(C(=O)N(C)C)nc1Cl)C3c1cnc(C(=O)N(C)C)s1 (centres unmarked) [Example 1.34.2, 5-(6-(2-((2-chloro-6-(dimethylcarbamoyl)pyridin-3-yl)oxy)acetyl)-2-methyl-5,6,7,8-tetrahydro-[1,3,4]thiadiazolo [2′,3′:2,3]imidazo[4,5-c]pyridin-5-yl)-N,N-dimethylthiazole-2-carboxamide]
The IC50 of the first is 41-fold higher: 371 nM for the first, 9 nM for the second.

Going from O=C(COc1ccccc1C(F)(F)F)N1CCc2nc3sccn3c2C1c1cccnc1F (centres unmarked) [Example 6.2.2, 1-(5-(2-fluoropyridin-3-yl)-7,8-dihydrothiazolo[2′,3′:2,3]-imidazo[4,5-c]pyridin-6(5H)-yl)-2-(2-(trifluoromethyl)-phenoxy)ethanone] to Cc1ccc(C2c3c(nc4sccn34)CCN2C(=O)COc2ccc(Cl)cc2C)c(F)c1 (centres unmarked) [Example 6.10.1, 2-(4-chloro-2-methylphenoxy)-1-(5-(2-fluoro-4-methyl-phenyl)-7,8-dihydrothiazolo[2′,3′:2,3]imidazo[4,5-c]-pyridin-6(5H)-yl)ethanone], the IC50 falls from 81 nM to 5 nM (16-fold).

First: Cc1nn2c3c(nc2s1)CCN(C(=O)COc1ccc(C(F)(F)F)nc1)C3c1ccc(C2CC2)cc1F (centres unmarked) [Example 1.6.4, 1-(5-(4-cyclopropyl-2-fluorophenyl)-2-methyl-7,8-dihydro-[1,3,4]thiadiazolo[2′,3′:2,3]imidazo[4,5-c]pyridin-6(5H)-yl)-2-((6-(trifluoromethyl)pyridin-3-yl)oxy)ethanone]
Second: Cc1ccc(OCC(=O)N2CCc3nc4sc(C)nn4c3C2c2ccc(C3CC3)cc2F)c(C)n1 (centres unmarked) [Example 1.6.3, 1-(5-(4-cyclopropyl-2-fluorophenyl)-2-methyl-7,8-dihydro-[1,3,4]thiadiazolo[2′,3′:2,3]imidazo[4,5-c]pyridin-6(5H)-yl)-2-((2,6-dimethylpyridin-3-yl)oxy)ethanone]
The IC50 of the first is 5.2-fold higher: 68 nM for the first, 13 nM for the second. The second is the more potent here.

Going from Cc1nn2c3c(nc2s1)CCN(C(=O)COc1ccc(N(C)C)nc1Cl)C3c1ccc(Cl)cc1F (centres unmarked) [Example 1.4.7, 1-(5-(4-chloro-2-fluorophenyl)-2-methyl-7,8-dihydro-[1,3,4]thiadiazolo[2′,3′:2,3]imidazo[4,5-c]pyridin-6(5H)-yl)-2-((2-chloro-6-(dimethylamino)pyridin-3-yl)oxy)ethanone] to Cc1nn2c3c(nc2s1)CCN(C(=O)COc1cnc(N(C)C)nc1Cl)C3c1ccc(Cl)cc1F (centres unmarked) [Example 1.4.40, 2-((4-chloro-2-(dimethylamino)pyrimidin-5-yl)oxy)-1-(5-(4-chloro-2-fluorophenyl)-2-methyl-7,8-dihydro-[1,3,4]thiadiazolo [2′,3′:2,3]imidazo[4,5-c]pyridin-6(5H)-yl)ethanone], the IC50 falls from 6 nM to 4 nM (1.5-fold).

Compared with Cc1ccc(C2c3c(nc4sc(C)nn34)CCN2C(=O)COc2ccc(C(=O)N(C)C3CC3)nc2Cl)c(F)c1 (centres unmarked) [Example 1.53.3, 6-chloro-N-cyclopropyl-5-(2-(5-(2-fluoro-4-methyl-phenyl)-2-methyl-7,8-dihydro-[1,3,4]thiadiazolo-[2′,3′:2,3]imidazo[4,5-c]pyridin-6(5H)-yl)-2-oxoethoxy)-N-methylpicolinamide], Cc1nn2c3c(nc2s1)CCN(C(=O)COc1ccc(C(=O)N(C)C)nc1Cl)C3c1ncc(Cl)cc1F (centres unmarked) [Example 1.33.3, 6-chloro-5-(2-(5-(5-chloro-3-fluoropyridin-2-yl)-2-methyl-7,8-dihydro-[1,3,4]thiadiazolo[2′,3′:2,3]imidazo[4,5-c]pyridin-6(5H)-yl)-2-oxoethoxy)-N,N-dimethylpicolinamide] is 2.5-fold lower in IC50: 15 nM for the first, 6 nM for the second. The second is the more potent here.

First: O=C(COc1ccc(Cl)cc1Cl)N1CCc2nc3sccn3c2C1c1cnn(-c2ccccc2)c1 (centres unmarked) [Example 6.13.2, 2-(2,4-dichlorophenoxy)-1-(5-(1-phenyl-1H-pyrazol-4-yl)-7,8-dihydrothiazolo[2′,3′:2,3]imidazo[4,5-c]pyridin-6(5H)-yl)ethanone]
Second: COc1ccc(C2c3c(nc4sccn34)CCN2C(=O)COc2ccc(CN3CCOCC3)cc2Cl)c(F)c1 (centres unmarked) [Example 6.3.1, 2-(2-chloro-4-(morpholinomethyl)phenoxy)-1-(5-(2-fluoro-4-methoxyphenyl)-7,8-dihydrothiazolo[2′,3′:2,3]-imidazo[4,5-c]pyridin-6(5H)-yl)ethanone]
The IC50 of the first is 10-fold higher: 50 nM for the first, 5 nM for the second.

Compared with CCc1nc(C(=O)NC2CC2)ccc1OCC(=O)N1CCc2nc3sc(CF)nn3c2C1c1sc(C)nc1C (centres unmarked) [Example 7.4.1, N-cyclopropyl-5-(2-(5-(2,4-dimethylthiazol-5-yl)-2-(fluoromethyl)-7,8-dihydro-[1,3,4]thiadiazolo[2′,3′:2,3]imidazo[4,5-c]pyridin-6(5H)-yl)-2-oxoethoxy)-6-ethylpicolinamide], CCc1nc(C)ccc1OCC(=O)N1CCc2nc3sc(C)nn3c2C1c1ccc(C2CC2)cc1F (centres unmarked) [Example 1.6.8, 1-(5-(4-cyclopropyl-2-fluorophenyl)-2-methyl-7,8-dihydro-[1,3,4]thiadiazolo[2′,3′:2,3]imidazo[4,5-c]pyridin-6(5H)-yl)-2-((2-ethyl-6-methylpyridin-3-yl)oxy)ethanone] is 3.3-fold higher in IC50: 7 nM for the first, 23 nM for the second. The first is the more potent here.

Compared with COC1(C)CN(c2ccc(OCC(=O)N3CCc4nc5sc(C)nn5c4[C@@H]3c3ncc(C)cc3F)c(Cl)n2)C1 [Example 1.31.11, (R)-2-((2-chloro-6-(3-methoxy-3-methylazetidin-1-yl)pyridin-3-yl)oxy)-1-(5-(3-fluoro-5-methylpyridin-2-yl)-2-methyl-7,8-dihydro-[1,3,4]thiadiazolo[2′,3′:2,3]imidazo[4,5-c]pyridin-6(5H)-yl)ethanone], CNC(=O)c1cc(F)c(C2c3c(nc4sc(C)nn34)CCN2C(=O)COc2ccc(N3CCOCC3)nc2Cl)s1 (centres unmarked) [Example 1.25.1, 5-(6-(2-((2-chloro-6-morpholinopyridin-3-yl)oxy)acetyl)-2-methyl-5,6,7,8-tetrahydro-[1,3,4]thiadiazolo[2′,3′:2,3]imidazo[4,5-c]pyridin-5-yl)-4-fluoro-N-methylthiophene-2-carboxamide] is 4.6-fold lower in IC50: 23 nM for the first, 5 nM for the second.

CCc1nc(C)ccc1OCC(=O)N1CCc2nc3sccn3c2C1c1c(C)nn(C)c1C (centres unmarked) [Example 6.15.1, ((2-ethyl-6-methylpyridin-3-yl)oxy)-1-(5-(1,3,5-trimethyl-1H-pyrazol-4-yl)-7,8-dihydrothiazolo-[2′,3′:2,3]imidazo[4,5-c]pyridin-6(5H)-yl)ethanone] and CCc1nc(C)ccc1OCC(=O)N1CCc2nc3sc(C)nn3c2C1c1cnc(C2CC2)nc1 (centres unmarked) [Example 1.10.1, 1-(5-(2-cyclopropylpyrimidin-5-yl)-2-methyl-7,8-dihydro-[1,3,4]thiadiazolo[2′,3′:2,3]imidazo[4,5-c]pyridin-6(5H)-yl)-2-((2-ethyl-6-methylpyridin-3-yl)oxy)ethanone] are within 1.5-fold of each other in IC50: 149 nM for the first, 187 nM for the second.

CCOC(=O)c1coc(C2c3c(nc4sc(C)nn34)CCN2C(=O)COc2ccc(N3CCOCC3)nc2Cl)n1 (centres unmarked) [Example 1.29.1, Ethyl 2-(6-(2-((2-chloro-6-morpholinopyridin-3-yl)oxy)acetyl)-2-methyl-5,6,7,8-tetrahydro-[1,3,4]thiadiazolo [2′,3′:2,3]imidazo[4,5-c]pyridin-5-yl)oxazole-4-carboxylate] and Cc1nn2c3c(nc2s1)CCN(C(=O)COc1ccc(C(F)(F)F)nc1Cl)C3c1sccc1F (centres unmarked) [Example 1.23.3, 2-((2-chloro-6-(trifluoromethyl)pyridin-3-yl)oxy)-1-(5-(3-fluorothiophen-2-yl)-2-methyl-7,8-dihydro-[1,3,4]thiadiazolo [2′,3′:2,3]imidazo[4,5-c]pyridin-6(5H)-yl)ethanone] are the same in IC50: 20 nM for the first, 20 nM for the second.

Cc1nn2c3c(nc2s1)CCN(C(=O)COc1ccc(S(N)(=O)=O)cc1C)C3c1sccc1F (centres unmarked) [Example 1.23.2, 4-(2-(5-(3-fluorothiophen-2-yl)-2-methyl-7,8-dihydro-[1,3,4]thiadiazolo[2′,3′:2,3]imidazo[4,5-c]pyridin-6(5H)-yl)-2-oxoethoxy)-3-methylbenzenesulfonamide] showed an IC50 of 89 nM.
